Measured values from patent publication US12558327B2, “Methods and compositions for treating sleep apnea” (The Brigham and Women's Hospital, Inc., priority 2019, dated 2026).
“And” between values parts separate entries of the source, which are not always exact repeats. Identical values can stand only once. “Also recorded” adds a separate entry of the source. Like-named read-outs stand apart in the source and are kept apart here.

What was measured:
patients with OSA = details: drug taken alone, cited from earlier work
OSA patients [1] = details: for NREM (atomoxetine) and REM (oxybutynin) specific AHI / effect on ventilation during sleep / oxygen saturation / oxygen levels compared to placebo: each drug administered alone; for OSA severity (apnea hypopnea index, AHI): nine moderate-to-severe OSA patients, REM and NREM sleep
Source text: In a preliminary investigation, nine patients equipped with a pneumotachograph attached to an oronasal mask to measure ventilation and an esophageal catheter to estimate the arousal threshold, performed a sleep study on each of these 4 conditions: placebo, atomoxetine alone, oxybutynin alone and ato-oxy.

patients with mild OSA = details: 15 patients with mild OSA; cited from earlier work
[2] = test system: OSA patients; normal controls; details: cited from earlier work
[3] = in vivo; cited from earlier work
OSA patients [4] = assay: Atomoxetine plus pimavanserin sleep study in 5 OSA patients (Example 4); assay type: in vivo, human; details: inferred from combination effect and atomoxetine-alone reduction
Description: We administered the recently-approved selective 5-HT2A inverse agonist pimavanserin 34 mg to block the EEG arousal response to CO2 in association with atomoxetine 80 mg and measured the effect of this combination on OSA severity, arousal threshold and collapsibility in 5 patients. These doses were chosen as they are the usual effective doses for attention-deficit disorder and delusion-hallucinations in patients with Parkinson's disease, respectively, based on prescribing information. Patients were also instrumented with an oronasal mask, and in 4/5 patients, esophageal catheter and genioglossus intramuscular electrodes. […] The effect on the arousal threshold is noteworthy, because pimavenserin was administered together with atomoxetine, a wake-promoting drug that, as described above, caused a reduction in arousal threshold by ˜18% compared to placebo in OSA patients in a previous trial. This means that pimavanserin could actually increase the respiratory arousal threshold by ˜50%.

OSA patients [5] = details: cited from earlier work
OSA subjects = assay: Tiagabine in 14 OSA subjects; assay type: in vivo, human
Source text: As described herein, drugs that increase sleep depth (and slow wave sleep (SWS) in particular) such as tiagabine or gabapentin could help the resolution of OSA. […] The pharmacological increase in slow wave sleep (SWS) could be an ideal mechanism for raising the arousal threshold to treat OSA, particularly since SWS seems to be a “protective state” against OSA. […] The reason for improvement likely relates to changes in the non-anatomical factors that contribute to OSA during SWS such as reduced arousability, thereby enabling a higher activation of upper airway dilator muscles. […] Thus, as described herein, drugs such as gabapentin that cause 20-60% increase of SWS^20,21, are ideal candidates for the treatment of OSA in association with atomoxetine.

OSA patients [6] = details: cited from earlier work; remark: listed apart in the source
[7] = test system: subjects with and without OSA; details: cited from earlier work
OSA patients [8] = details: zopiclone n=14 vs placebo n=16; 30 days; non-significant; cited from earlier work
OSA patients [9] = details: zopiclone 7.5 mg, 1 night, n=12; cited from earlier work
[10] = protriptyline 20 mg, 4 weeks, 5 obese men with severe OSA (Brownell)
[11] = seven patients with a low arousal threshold (Eckert)
[12] = zopiclone 7.5 mg, 21 healthy individuals and OSA patients

In the case of `CNCC[C@@H](Oc1ccccc1C)c1ccccc1` [atomoxetine], the “success in reducing OSA severity / the AHI” value (patients with OSA) is listed as “modest success; also recorded: without success”, the “share of the improvement in ventilation during sleep accounted for” value (OSA patients [1]; analysis of ventilatory parameters during all night) is listed as “at least 70%” and the “NREM (atomoxetine) and REM (oxybutynin) specific AHI” value (OSA patients [1]) is listed as “did not respectively improve”. For the same compound, the “effect on ventilation during sleep” value (OSA patients [1]) was “responsible for most of the ventilatory improvement”, the “oxygen saturation / oxygen levels compared to placebo” value (OSA patients [1]) was “improved oxygen saturation” and the “reduction in arousal threshold vs placebo” value (OSA patients [1]; nine OSA patients, atomoxetine p=0.03, combination p>0.7) was 18%. The “OSA severity (apnea hypopnea index, AHI)” value (OSA patients [1]) was “did not improve OSA severity”, the “OSA severity (apnea hypopnea index, AHI)” value (OSA patients [1]; listed as Atomoxetine) was “did not systematically reduce OSA severity” and the AHI (patients with mild OSA) was “did not improve”. The daytime sleepiness (patients with mild OSA) was “significantly improve”.

For `CNCCCN1c2ccccc2CCc2ccccc21` [desipramine], the “success in reducing OSA severity / the AHI” value (patients with OSA) is given as “modest success; also recorded: without success”, the “airway collapsibility compared to placebo” value ([2]; 1 night, 14 OSA patients) is given as “less collapsible airway” and the “effect on OSA severity as a group” value ([2]; 1 night, 14 patients) is given as “not significant”. The “genioglossus activity during sleep” value ([2]; normal controls) was “increased genioglossus activity” and the “upper airway collapsibility during sleep” value ([2]; normal controls) was “reduced upper airway collapsibility”.

In the case of `NCC1(CC(=O)O)CCCCC1` [gabapentin], the “increase of SWS (slow wave sleep)” value [3] is given as 20-60%.

With `CCN(CC)CC#CCOC(=O)C(O)(c1ccccc1)C1CCCCC1` (stereo not drawn) [oxybutynin] the “NREM (atomoxetine) and REM (oxybutynin) specific AHI” value (OSA patients [1]) was “did not respectively improve”, the “effect on ventilation during sleep” value (OSA patients [1]) was “minor effect on ventilation” and the “oxygen saturation / oxygen levels compared to placebo” value (OSA patients [1]) was “did not improve oxygen levels”. For the same compound, the “OSA severity (apnea hypopnea index, AHI)” value (OSA patients [1]) was “did not systematically reduce OSA severity”.

In the case of `CC(C)COc1ccc(CNC(=O)N(Cc2ccc(F)cc2)C2CCN(C)CC2)cc1` [pimavanserin], the “increase of respiratory arousal threshold ascribed to pimavanserin” value (OSA patients [4]) is reported as ~50%.

In the case of `CNCCCC1c2ccccc2C=Cc2ccccc21` [protriptyline], the “success in reducing OSA severity / the AHI” value (patients with OSA; listed as Protriptyline) is listed as “without success”, the “success in reducing OSA severity / the AHI” value (patients with OSA) is listed as “modest success” and the “reduction in AHI from baseline” value (OSA patients [5]; open label 4-week crossover trial, 9 patients (Hanzel)) is listed as 42%. The “AHI during NREM sleep” value (OSA patients [5]; [10]) was “no change”, the “oxygen saturation and daytime sleepiness” value (OSA patients [5]; [10]) was “improvements” and the “NREM AHI as a group” value (OSA patients [5]; protriptyline 20 mg, 14 days, 10 moderate-to-severe OSA patients (Whyte)) was “did not change”.

In the case of `Cc1ccsc1C(=CCCN1CCC[C@@H](C(=O)O)C1)c1sccc1C` [tiagabine], the “AHI or oxygen saturation during sleep” value (OSA subjects) is reported as “without worsening” and the “increase in EEG slow wave activity” value (OSA subjects) is reported as 16%.

In the case of `O=c1n(CCCN2CCN(c3cccc(Cl)c3)CC2)nc2ccccn12` [trazodone], the “AHI compared to placebo” value (OSA patients [6]; [11]) is listed as “did not affect”, the “improvement of arousal threshold” value (OSA patients [6]; [11]) is listed as 30% and the “arousal threshold in response to hypercapnia” value (OSA patients [6]; trazodone 100 mg before bedtime, eight OSA patients (Heinzer)) is listed as “increased”. The “reduction of AHI” value (OSA patients [6]; trazodone 100 mg, 15 unselected OSA patients (Smales)) was 26%.

In the case of `Cc1ccc(-c2nc3ccc(C)cn3c2CC(=O)N(C)C)cc1` [zolpidem], the “increase in arousal threshold compared to placebo” value ([7]; 21 subjects with and without OSA, zolpidem 10 mg) is listed as ~30% and 25%, the “increase in median genioglossus muscle responsiveness compared to placebo” value ([7]; 21 subjects, p=0.03) is listed as 3 fold and the “genioglossus response to pharyngeal negative pressure compared to placebo” value ([7]; zolpidem 10 mg, 21 individuals) is listed as “increased”.

For `CN1CCN(C(=O)OC2c3nccnc3C(=O)N2c2ccc(Cl)cn2)CC1` (stereo not drawn) [zopiclone], the “change in AHI from baseline” value (OSA patients [8]) is given as −25%, the “change in AHI from placebo” value (OSA patients [8]) is given as −15% and the “AHI compared to placebo” value (OSA patients [9]) is given as “did not significantly change”. For the same compound, the “increase in arousal threshold” value (OSA patients [9]) was 20%, the AHI vs placebo [7, 12] was “did not change” and the “arousal threshold vs placebo” value [7, 12] was “significantly increased”.
